From patent US12194080B2, “Methods for identification, assessment, prevention, and treatment of metabolic disorders using PM20D1 and N-lipidated amino acids” (Dana-Farber Cancer Institute, Inc., priority 2015, dated 2025)

Legend:
[1] = tested on: differentiated primary BAT cells; experiment: Cellular oxygen consumption rate (Seahorse XF24), differentiated primary BAT adipocytes; assay type: cell-based, mouse; details: 50 μM, in presence of oligomycin (1 μM)
Experimental: C2C12, U2O5, and 293A cells were cultured in DMEM with 10% FBS and pen/strep. Primary inguinal (iWAT) and brown (BAT) adipocytes were obtained as follows. The stromal-vascular fraction of inguinal (iWAT) pad from 4-12 week old male mice was dissected, minced, and digested for 45 min. at 37° C. in PBS containing 10 mM CaCl2, 2.4 U/ml dispase II (Roche), and 1.5 U/ml collagenase D (Roche). The stromal-vascular fraction of brown fat (BAT) pads from newborn (P1-P14) pups was dissected, minced, and digested for 45 min at 37° C. in PBS containing 1.3 mM CaCl2, 120 mM NaCl, 5 mM KCl, 5 mM glucose, 100 mM HEPES, 4% BSA, and 1.5 mg/ml collagenase B (Roche). […]
Cellular oxygen consumption rates were determined using an XF24 Extracellular Flux Analyzer (Seahorse Biosciences). […] C2C12 or U2OS cells were seeded at 30,000 or 50,000 cells/well, respectively in an XF24 cell culture microplate (V7-PS, Seahorse Bioscience) and analyzed the following day. Primary iWAT or BAT adipocytes were seeded at 15,000 cells/well, differentiation was induced the following day as described, and the cells were analyzed on day 5. […] For data expressed as a percentage of oligomycin-treated basal, the respiration at cycle 6 was normalized to 100%, and the maximum respiration at any time point between cycles 7 and 15 inclusive was used.

BAT mitochondria = experiment: Respiration of isolated crude BAT mitochondria; assay type: biochemical, mouse; details: 10-100 μM; 10 mM pyruvate and 5 mM malate as substrates
Experimental: BAT pads from ten 6-12 week old male mice were harvested and minced on ice in isolation buffer (250 mM sucrose, 5 mM HEPES, and 1 mM EGTA) supplemented with 2% fatty acid-free BSA (Sigma). The tissue was then homogenized in a Teflon homogenizer and centrifuged (8,500×g, 10 min, 4° C.). The supernatant was discarded, the pellet was re-suspended in 20 ml isolation buffer supplemented with 1% fatty acid-free BSA, and centrifuged (700×g, 10 min, 4° C.). The supernatant was centrifuged one final time (8,500×g, 10 min, 4° C.). The pellet was re-suspended in isolation buffer supplemented with 1% fatty acid-free BSA (200 μl) to yield crude BAT mitochondria at 50-80 mg/ml. For respiration measurements, BAT mitochondria were diluted to in mitochondria respiration buffer (5 mM KCl, 4 mM KH2PO4, 5 mM HEPES, 1 mM EGTA, 1% fatty acid free BSA, 10 mM pyruvate, 5 mM malate, and 1 mM GDP) and plated at 15 μg/well (50 μl total volume) in an XF24 cell culture microplate. The plate was centrifuged (1000×g, 20 min, 4° C.), additional pre-warmed mitochondrial respiration buffer was added (450 μl), and respiration was measured on a XF24 Extracellular Flux Analyzer. The Seahorse program was run as follows: basal measurement, 2 cycles; inject port A (compounds), 1 cycle, inject port B (FCCP), 1 cycle, inject port C (rotenone), 1 cycle. Each cycle consisted of mix 0.5 min, wait 0 min, measure 2 min. […]

C2C12 cells = experiment: Mitochondrial membrane potential by TMRM fluorescence; assay type: cell-based, mouse; details: co-treatment with oligomycin 1 μM, 20 min; C18:1-Phe 50 μM, FCCP 0.4 μM
Experimental: Mitochondrial membrane potential was measured using tetramethylrhodamine methyl ester (TMRM, Life Technologies) fluorescence. C2C12 cells were plated in 6-well plates and grown to 80-90% confluence. Cells were then washed once with PBS and switched into Seahorse respiration buffer with the indicated compounds at the indicated concentrations: TMRM (100 nM), oligomycin (1 μM), FCCP (0.4 μM), and C18:1-Phe (10 or 50 μM). After 20 min. incubation at 37° C., the media was aspirated, cells were washed once with PBS, and trypsinized. Trypsinized cells were directly resuspended in PBS (total volume 300 μl), stored on ice, and analyzed on a FACSCanto™ II (BD Biosciences) with 20,000 events per sample.

Structure (SMILES): CCCCCCCC/C=C\CCCCCCCC(=O)N[C@@H](Cc1ccccc1)C(=O)O [C18:1-Phe, Oleoyl-L-phenylalanine]
- maximal OCR versus DMSO at the same time point [1]: 156%
- maximal OCR versus oligomycin-treated basal respiration [1]: 198%
- respiration of isolated mitochondria (BAT mitochondria): increased respiration in a dose-dependent manner
- decrease of TMRM fluorescence (C2C12 cells): ~45%
